Where two headings read alike, the source gives them in different places. Marks after values point to notes of the source that are not given here.
How the values were obtained:
[1] = target: T1, human 5-HT2C receptor (Homo sapiens, UniProt P28335); settings: cited from earlier work
T1 sequence (P28335 33-458): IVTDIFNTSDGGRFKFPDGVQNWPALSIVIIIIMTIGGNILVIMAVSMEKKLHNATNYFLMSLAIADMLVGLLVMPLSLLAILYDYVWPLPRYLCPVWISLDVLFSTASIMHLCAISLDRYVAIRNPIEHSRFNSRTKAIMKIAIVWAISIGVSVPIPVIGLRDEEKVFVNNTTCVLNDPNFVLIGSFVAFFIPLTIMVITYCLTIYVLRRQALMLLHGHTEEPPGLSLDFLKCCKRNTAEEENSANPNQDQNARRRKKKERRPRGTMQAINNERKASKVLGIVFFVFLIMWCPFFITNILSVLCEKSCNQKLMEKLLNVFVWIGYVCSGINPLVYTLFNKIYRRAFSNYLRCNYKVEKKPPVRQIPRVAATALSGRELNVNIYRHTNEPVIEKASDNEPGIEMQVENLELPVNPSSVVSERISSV

[2] = test system: 5-HT receptor in human colon longitudinal muscle; test: 5-HT-induced potentiation of electrically stimulated contractions of human colon longitudinal muscle strips; type: cell-based
[3] = target: T2, human 5-HT2A receptor (Homo sapiens, UniProt P28223); settings: cited from earlier work
T2 sequence (P28223 whole entry): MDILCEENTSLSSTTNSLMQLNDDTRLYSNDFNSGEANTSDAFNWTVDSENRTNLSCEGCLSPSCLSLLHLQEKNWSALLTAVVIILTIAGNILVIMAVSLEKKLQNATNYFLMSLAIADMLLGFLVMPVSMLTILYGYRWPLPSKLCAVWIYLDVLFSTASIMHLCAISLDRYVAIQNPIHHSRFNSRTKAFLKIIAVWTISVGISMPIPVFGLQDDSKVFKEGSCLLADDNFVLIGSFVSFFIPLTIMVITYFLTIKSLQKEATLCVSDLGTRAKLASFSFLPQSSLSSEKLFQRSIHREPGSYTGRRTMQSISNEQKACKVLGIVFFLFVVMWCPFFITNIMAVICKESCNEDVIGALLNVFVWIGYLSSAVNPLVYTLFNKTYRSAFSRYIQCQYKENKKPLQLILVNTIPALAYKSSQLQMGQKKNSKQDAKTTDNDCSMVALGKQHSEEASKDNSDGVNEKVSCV

[4] = target: 5-HT receptor in human colon longitudinal muscle (Homo sapiens, UniProt P41595); test: 5-HT-induced potentiation of electrically stimulated contractions of human colon longitudinal muscle strips; type: cell-based
Sequence of 5-HT receptor in human colon longitudinal muscle (Homo sapiens, UniProt P41595) (P41595 whole entry): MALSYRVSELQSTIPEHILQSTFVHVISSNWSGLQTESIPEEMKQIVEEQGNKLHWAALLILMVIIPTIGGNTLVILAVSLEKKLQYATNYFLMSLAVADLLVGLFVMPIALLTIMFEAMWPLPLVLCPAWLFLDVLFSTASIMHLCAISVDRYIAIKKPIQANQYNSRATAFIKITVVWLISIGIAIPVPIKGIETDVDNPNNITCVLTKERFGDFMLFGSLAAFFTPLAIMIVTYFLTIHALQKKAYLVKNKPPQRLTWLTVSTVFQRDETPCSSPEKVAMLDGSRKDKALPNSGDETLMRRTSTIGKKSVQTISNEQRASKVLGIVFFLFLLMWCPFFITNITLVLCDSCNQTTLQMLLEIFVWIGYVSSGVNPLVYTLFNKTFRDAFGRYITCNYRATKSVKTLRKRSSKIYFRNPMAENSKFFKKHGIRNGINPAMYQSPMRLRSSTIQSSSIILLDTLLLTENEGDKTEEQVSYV

[5] = target: T3, 5-HT2B receptor (Homo sapiens, UniProt P41595); settings: cited from earlier work
Target sequence in this assay (P41595 whole entry): as above

[6] = target: T1, human 5-HT2C receptor; settings: cited from earlier work; remark: listed apart in the source
[7] = target: T4, human 5-HT4 receptor (Homo sapiens, UniProt Q13639); settings: marked #; cited from earlier work
T4 sequence (Q13639 whole entry): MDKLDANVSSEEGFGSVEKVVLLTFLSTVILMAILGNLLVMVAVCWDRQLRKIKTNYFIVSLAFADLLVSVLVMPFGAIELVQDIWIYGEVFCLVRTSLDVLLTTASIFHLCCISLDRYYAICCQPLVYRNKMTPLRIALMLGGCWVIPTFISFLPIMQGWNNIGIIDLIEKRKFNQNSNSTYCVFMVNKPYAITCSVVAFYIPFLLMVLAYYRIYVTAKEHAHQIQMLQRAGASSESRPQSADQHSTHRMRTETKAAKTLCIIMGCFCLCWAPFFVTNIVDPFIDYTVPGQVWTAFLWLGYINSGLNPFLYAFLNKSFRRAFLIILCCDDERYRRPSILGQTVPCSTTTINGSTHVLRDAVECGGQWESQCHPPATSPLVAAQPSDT

[8] = target: T3, 5-HT2B receptor; settings: cited from earlier work; remark: listed apart in the source
Target sequence in this assay (P41595 whole entry): as the sequence (P41595 whole entry) above

[9] = target: T4, human 5-HT4 receptor; settings: cited from earlier work
[10] = target: T2, human 5-HT2A receptor; settings: cited from earlier work; remark: listed apart in the source
[11] = target: T3, 5-HT2B receptor; settings: cited from earlier work; remark: listed apart in the source
Target sequence in this assay (P41595 whole entry, looked up): as the sequence (P41595 whole entry) above

COC(=O)[C@@H]1[C@H]2C[C@H]3c4[nH]c5ccccc5c4CCN3C[C@@H]2CC[C@@H]1O [Yohimbine]
affinity at human 5-HT2C receptor [1]: <5.0

NC1=N[C@H](O)[C@H]2[C@H]3O[C@]4(O)O[C@@H]([C@@H](O)[C@@]2(N1)[C@@H]4O)[C@]3(O)CO [tetrodotoxin]
effect on contractile responses of colon smooth muscle to electrical stimulation [2]: inhibited

Cc1cc2c(cc1Cl)N(C(=O)Nc1ccc(Oc3cccnc3C)nc1)CC2 [SB 242084]
affinity from binding data (#) at human 5-HT2A receptor [3]: 6.8^# | pKB estimate for antagonists at the 5-HT receptor in colon ([4]; human colon longitudinal muscle, at least 3 concentrations (methiothepin a single concentration), at least 3 donors): 6.3 ± 0.2 | affinity from binding data (#) at human 5-HT2B receptor [5]: 7.0^# | affinity from binding data (#) at human 5-HT2C receptor [6]: <6.0^# | affinity from binding data (#) at human 5-HT4 receptor [7]: <5.0^#

CN1[C@@H]2CC[C@H]1C[C@@H](OC(=O)C(CO)c1ccccc1)C2 (stereo partly shown) [atropine]
effect on contractile responses of colon smooth muscle to electrical stimulation [2]: inhibited

Cn1ccc2cc3c(cc21)CCN3C(=O)Nc1cccnc1 [SB 206553, 5-methyl-1-(3-pyridylcarbamoyl)-1,2,3,5-tetrahydropyrrolo [2,3-f]indole]
affinity from binding data (#) at human 5-HT2A receptor ([3]; marked #): 6.0^# | Kb [4]: 3.16 nM | antagonist potency against 5-HT response in human colon [4]: 8.5 | pKB or pA2 for antagonists (*) at human 5-HT2B receptor [8]: 9.0*

O=C(c1ccc(F)cc1)C1CCN(CCn2c(=O)[nH]c3ccccc3c2=O)CC1 [Ketanserin]
pKB or pA2 for antagonists (*) at human 5-HT4 receptor ([9]; marked *): 4.7*

CC(N)Cc1c[nH]c2ccc(O)cc12 (stereo not drawn) [Alpha-Me5-HT]
pEC50 for agonists at human 5-HT4 receptor [9]: 6.2 | pEC50 for agonists at the 5-HT receptor in colon ([4]; human colon longitudinal muscle, mean ± s.e.mean, at least 3 donors): 8.5 ± 0.1 | pEC50 for agonists at human 5-HT2B receptor [8]: 8.4

Cc1cc(NC(=O)Nc2ccc3c(ccn3C)c2)sn1 [SB 204741, N-(1-methyl-5-indolyl)-N′-(3-methyl-5-isothiazolyl) urea]
affinity at human 5-HT4 receptor ([9]; neither * nor # printed): <5.0 | Kb [4]: 158 nM | antagonist potency against 5-HT response in human colon [4]: 6.8 | pKB or pA2 for antagonists (*) at human 5-HT2A receptor [10]: <5.0* | pKB or pA2 for antagonists (*) at human 5-HT2B receptor ([8]; marked *): 7.0*

CSc1ccc2c(c1)C(N1CCN(C)CC1)Cc1ccccc1S2 (stereo not shown) [Methiothepin]
pKB or pA2 for antagonists (*) at human 5-HT4 receptor [9]: <6.0*

CC[C@@H](CO)NC(=O)[C@@H]1C=C2c3cccc4c3c(cn4C)C[C@H]2N(C)C1 [Methysergide]
pKB or pA2 for antagonists (*) at human 5-HT4 receptor ([9]; marked *): <5.0* | pKB or pA2 for antagonists (*) at human 5-HT2C receptor [1]: 8.9*

COc1ccc2[nH]cc(CCN)c2c1 [5-MeOT]
pEC50 for agonists at human 5-HT4 receptor [9]: 6.2 | pEC50 for agonists at the 5-HT receptor in colon [4]: 6.8 ± 0.2 | pEC50 for agonists at human 5-HT2B receptor [8]: 7.6

CC(C)c1cc(-c2ccc(F)c3ccccc23)nc(N)n1 [RS 127445, 2-amino-4-(4-fluoronaphth-1-yl)-6-isopropylpyrimidine]
Kb [4]: 0.398 nM | affinity from binding data (#) at human 5-HT2B receptor ([5]; marked #): 9.5^# | pKB or pA2 for antagonists (*) at human 5-HT2C receptor ([1]; marked *): 6.4*

Cc1cc2c(cc1Cl)N(C(=O)Nc1cccc3ncccc13)CC2 [SB-215505, 6-chloro-5-methyl-N-(5-quinolyl)-2,3-dihydro-1H-indole-1-carboxamide]
potency as 5-HT2B receptor antagonist [11]: 9.9 | selectivity for 5-HT2B over 5-HT2C and 5-HT2A receptors [11]: 100 fold

Cl.Cn1ccc2cc(NC(=O)Nc3cccnc3)ccc21 [SB-200646, N-(1-methyl-5-indolyl)-N′-(3-pyridyl)urea hydrochloride]
selectivity between 5-HT2B and 5-HT2C receptors [11]: Non-selective

N-(1-methyl-1H-indol-5-yl)N′-(-bezyl)-2,3,4,9-tetrahydro-1H-beta-carboline [LY-23728]
selectivity for 5-HT2B over 5-HT2C and 5-HT2A receptors [11]: 100 fold

— patent publication US6444477B1, “Assay method for detecting 5-HT2B antagonists” (Pharmagene Laboratories Limited, priority 2000, dated 2002)
